Here are results for three compounds from US5942489A, “HGH-RH(1-29)NH2 analogues having antagonistic activity” (The Administrators of the Tulane Educational Fund, priority 1996, dated 1999).

“And” between values parts separate entries of the source, which are not always exact repeats. Identical values can stand only once.

In one experiment the test system is GH release. The settings on record: cited from earlier work.
Experiment [1] concerns GH release stimulated by hGH-RH(1-29)NH2. The experiment is described as follows: In vivo inhibition of hGH-RH(1-29)NH2-stimulated serum GH in anesthetized rats. On the set-up: species or system Sprague-Dawley rats. As to the method:
In Vivo Tests. Adult male Sprague-Dawley rats are anesthetized with pentobarbital (6 mg/100 g b.w., i.p.). Blood samples are taken from the jugular vein 30 min after the injection of pentobarbital. One group of 7 animals receives hGH-RH(1-29)NH2 as control. […] Blood samples are taken from the jugular vein 5 and 15 min after the injection of antagonists. GH levels are measured by RIA. Potencies of the antagonists are calculated by the factorial analysis of Bliss and Marks with 95% confidence limits and are based on the doses of 100 and 400 μg/kg b.w. of the Standard antagonist and 20 and 80 μg/kg b.w. of the antagonists tested. Statistical significance was assessed by Duncan's new multiple range test.

The subject of experiment [2] is SW-1990 human pancreatic cancers. Kind of experiment: SW 1990 human pancreatic cancers in nude mice. Format: in vivo. As to the method: Small piees of an SW-1990 rumor growing in a nude mouse were transplated s.c. into the right flanks of 60 nu/nu male nude mice. Ten days after transplantation, 40 mice with well growing tumors were groupled into 4 groups with equal average tumor volume (16 mm^3) in each group. Treatment started 13 days after transplantation and was continuted for 44 days. The tumors were measured and volume was calculated weekly. Tumor volume changes are shown in Table V. On day 45 of treatment the mice were sacraficed under Metofane anesthesia by exsanguination from abdominal aorta. Blood was collected, tumor and organ weights were determined.

[3] abbreviates: 80 μg/kg i.v., 15 min prior to GH-RH(1-29)NH2 3 μg/kg.

[AcTyr^1 ]hGH-RH(1-29)NH2: the “in vivo potency over that of GH-RH” value in the experiment with GH release is “ten fold or more”.
Consider “Ibu^0 --D--Arg^2 --Phe(pCl)^6 --Abu^16 --Nle^27 ] hGHRH (1-28) Agm [Peptide A]”, for which, in experiment [1] (setting [3]), the Inhibition % was determined as 43% and the “Serum GH Levels” value is 585.33 ± 89.34 ng/mL. Besides, the “Serum GH Levels” value in experiment [1] (80 μg/kg i.v., 30 min prior to GH-RH(1-29)NH2 3 μg/kg) is 788.39 ± 96.93 ng/mL. Besides, the “effect on growth of SW-1990 cancers (volume and weight data)” value in experiment [2] (Peptide #8 at 10 μg/day) is “no significant effect on the tumors”. In addition, in experiment [2] (dose 10, 44 days treatment), the “Final Tumor Volume mm^3” value is given as 1183 ± 342 mm^3 and the “Tumor weights” value was 1467 ± 595 mg. Also, in experiment [2] (dose 40, 44 days treatment), the “Final Tumor Volume mm^3” value is 902 ± 156 mm^3 and the “Tumor weights” value is recorded as 1297 ± 258 mg.
In the case of `CC[C@H](C)[C@H](NC(=O)[C@H](C)NC(=O)[C@H](CC(=O)O)NC(=O)[C@H](C)NC(=O)[C@@H](N)Cc1ccc(O)cc1)C(=O)N[C@@H](Cc1ccccc1)C(=O)N[C@H](C(=O)N[C@@H](CC(N)=O)C(=O)N[C@@H](CO)C(=O)N[C@@H](Cc1ccc(O)cc1)C(=O)N[C@@H](CCCNC(=N)N)C(=O)N[C@@H](CCCCN)C(=O)N[C@H](C(=O)N[C@@H](CC(C)C)C(=O)NCC(=O)N[C@@H](CCC(N)=O)C(=O)N[C@@H](CC(C)C)C(=O)N[C@@H](CO)C(=O)N[C@@H](C)C(=O)N[C@@H](CCCNC(=N)N)C(=O)N[C@@H](CCCCN)C(=O)N[C@@H](CC(C)C)C(=O)N[C@@H](CC(C)C)C(=O)N[C@@H](CCC(N)=O)C(=O)N[C@@H](CC(=O)O)C(=O)N[C@H](C(=O)N[C@@H](CCSC)C(=O)N[C@@H](CO)C(=O)N[C@@H](CCCNC(=N)N)C(N)=O)[C@@H](C)CC)C(C)C)[C@@H](C)O` [GH-RH (1-29) NH2, Tyr-Ala-Asp-Ala-Ile^5 -Phe-Thr-Asn-Ser-Tyr^10 -Arg-Lys-Val-Leu-Gly^15 -Gln-Leu-Ser-Ala-Arg^20 -Lys-Leu-Leu-Gln-Asp^25 -Ile-Met-Ser-Arg^29 -NH2], the “Serum GH Levels” value in experiment [1] (GH-RH(1-29)NH2 alone 3.0 μg/kg i.v. (stimulated control)) was 695.15 ± 95.40 ng/mL and 703.34 ± 90.01 ng/mL and 724.68 ± 93.01 ng/mL and 883.36 ± 148.34 ng/mL and 703.34 ± 93.01 ng/mL.
